Reference: PubChem BioAssay (NCI)
“And” between values parts separate entries of the source, which are not always exact repeats. Equal values may be shown once.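 Compound exposure: 48 hours, 5 concentrations, 96-well plates. GI50 is the concentration that inhibits growth by half. TGI is the concentration that stops growth completely.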

What was measured:
Assay in all cases: NCI-60 cell line screen, 48 h
EKVX NSCLC = tested on: EKVX NSCLC
HOP-62 NSCLC = tested on: HOP-62 NSCLC
HOP-92 NSCLC = tested on: HOP-92 NSCLC
M14 melanoma = tested on: M14 melanoma
NCI-H226 lung = tested on: NCI-H226 lung
NCI-H522 lung = tested on: NCI-H522 lung
SF-268 CNS = tested on: SF-268 CNS
SF-295 CNS = tested on: SF-295 CNS
SNB-19 CNS = tested on: SNB-19 CNS
SNB-75 CNS = tested on: SNB-75 CNS

SMILES	GI50 (EKVX NSCLC) [µM]	TGI (EKVX NSCLC)	GI50 (HOP-62 NSCLC) [µM]	TGI (HOP-62 NSCLC)	GI50 (HOP-92 NSCLC) [µM]	TGI (HOP-92 NSCLC)	GI50 (M14 melanoma) [µM]	TGI (M14 melanoma) [µM]	GI50 (NCI-H226 lung) [µM]	TGI (NCI-H226 lung)	GI50 (NCI-H522 lung) [µM]	TGI (NCI-H522 lung)	GI50 (SF-268 CNS) [µM]	TGI (SF-268 CNS)	GI50 (SF-295 CNS) [µM]	TGI (SF-295 CNS)	GI50 (SNB-19 CNS) [µM]	TGI (SNB-19 CNS)	GI50 (SNB-75 CNS) [µM]	TGI (SNB-75 CNS)
CC1=C([Te]c2ccc(O)cc2)C(=O)c2ccccc2C1=O	0.428	6.58 µM	0.9	5.15 µM	1.09	2.75 µM	1.88	5.05	0.33	1.57 µM	2.16	7.31 µM	2.63	9.03 µM	0.348	1.98 µM	2.8	10.7 µM	1.31	9.02 µM
c1ccc2c(c1)[nH]c1c2nc2ncccn21	–	> 100 µM	–	> 100 µM	–	> 100 µM	–	> 100	–	> 100 µM	–	> 100 µM	–	> 100 µM	–	> 100 µM	–	> 100 µM	–	> 100 µM
O=C(Nc1nc2ccc(F)cc2s1)c1cccnc1Nc1ccc(Cl)cc1	2.45	> 82.6 µM	2.55	9.08 µM	0.575	3.34 µM	2.94	> 100	2.97	> 100 µM	2.17	> 24.2 µM	3.68	> 100 µM	1.98	7.83 µM	3.83	> 100 µM	2.36	16.1 µM
CC1(C)CCC(C)(C)c2c1ccc(O)c2Cc1c(O)ccc2c1C(C)(C)CCC2(C)C	–	9.16 µM	–	4.1 µM	–	3.7 µM	–	3.75	–	3.88 µM	–	4.04 µM	–	6.75 µM	–	4.99 µM	–	5.4 µM	–	5.33 µM
COc1ccc2nc3ccccc3c(NCCCN(C)CCCl)c2c1	–	3.15 µM	–	3.05 µM	–	1.24 µM	–	2.33	–	1.62 µM	–	1.15 µM	–	2.75 µM	–	2.44 µM	–	2.06 µM	–	1.47 µM
S=c1nc(Cl)cc2[nH]c(Cl)cn12	–	7.41 µM	–	> 100 µM	–	96.9 µM	–	> 100	–	> 100 µM	–	6.22 µM	–	> 100 µM	–	14.4 µM	–	> 100 µM	–	13.8 µM
CC(C)(C)OC(=O)NC(CO)c1cccc(OCc2ccccc2)c1 (centres undefined)	–	> 100 µM	–	> 100 µM	–	> 100 µM	–	> 100	–	> 100 µM	–	> 100 µM	–	> 100 µM	–	> 100 µM	–	> 100 µM	–	> 100 µM
COc1ccc(-c2c(-c3cc(OC)c(OC)c(OC)c3)noc2N)cc1	1.03	> 100 µM	0.0239	38.9 µM	< 0.01	> 100 µM	< 0.01	> 100	0.0244	> 100 µM	< 0.01	–	< 0.0181	16.3 µM	< 0.01	> 100 µM	0.0342	> 100 µM	< 0.01	94.2 µM
CNC(=O)Oc1cc(C)c(/C=C/c2cncc(C(=O)NC)c2)c(C)c1	> 25	> 25 µM	> 22.3	> 25 µM	9.13	> 25 µM	16.8	> 25	> 25	> 25 µM	> 23.4	> 25 µM	> 25	> 25 µM	> 25	> 25 µM	> 25	> 25 µM	9.45	24.6 µM
CC(=O)C1(N=Nc2ccc(S(N)(=O)=O)cc2)CCOC1=O (centres undefined)	–	> 100 µM	–	> 100 µM	–	> 100 µM	–	> 100	–	> 100 µM	–	> 100 µM	–	> 100 µM	–	> 100 µM	–	> 100 µM	–	> 100 µM
N#C/C(=C/Sc1ccccc1)C(=O)O	–	> 100 µM	–	> 100 µM	–	> 100 µM	–	57.2	–	58.7 µM	–	23.4 µM	–	53.7 µM	–	> 100 µM	–	> 100 µM	–	55.9 µM
COc1cc(O)c2c(c1)C(=O)c1cc3c(c(O)c1C2=O)C(OC1OC(C)C(O)C(O)C1OC)C(OC)C(C)(O)C3=O (centres undefined)	2.74	7.21 µM and 5.39 µM	2.92	26.1 µM and 9.56 µM	2	8.49 µM and 1.81 µM	1.69	3.65	2.22	4.82 µM and 9.03 µM	2.18	6.7 µM and 9.45 µM	2.56	15.2 µM and 40.5 µM	1.53	4.7 µM and 5.97 µM	2.42	8.9 µM and 15.5 µM	2.84	15.7 µM and 10.1 µM
C[C@H]1[C@H]2[C@H]3CC[C@@H]4[C@@]5(C)C/C(=C/c6cccnc6)C(=O)C(C)(C)[C@@H]5CC[C@@]4(C)[C@]3(C)CC[C@]23CO[C@]1(C)[C@@H](C(=O)/C=C\c1cccnc1)C3	1.56	6.4 µM	1.47	> 15 µM	0.844	3.11 µM	1.57	11.9	0.97	2.1 µM	1.15	3.07 µM	1.27	4.17 µM	1.38	6.21 µM	0.869	1.76 µM	0.99	3.69 µM
COc1ccc(-c2cc(-c3ccc(O)cc3)nc3n[nH]c(N)c23)cc1	15.3	52.3 µM	21.9	53.9 µM	11.9	28.7 µM	21.3	43	17.9	49.5 µM	14.5	33.6 µM	19.6	56.2 µM	18.5	51.9 µM	33.3	> 100 µM	31.7	> 100 µM
CCc1ccc2c(c1)N(CCO)C1=C(C(=O)OC1)C2c1cccc(Cl)c1 (centres undefined)	5.33	31.1 µM	0.774	15.8 µM	12.7	27.8 µM	0.584	12.2	1.35	10.5 µM	0.242	2.76 µM	0.975	17.2 µM	0.382	15.5 µM	1.33	25.1 µM	0.395	14.6 µM
